From ChEMBL document CHEMBL1143623, “Thyroid receptor ligands. 3. Design and synthesis of 3,5-dihalo-4-alkoxyphenylalkanoic acids as indirect antagonists of the thyroid hormone receptor” (J Med Chem, 2005)

Columns and labels:
[1] = molecular target: T1, Thyroid hormone receptor beta (Homo sapiens, UniProt P10828); assay: Inhibitory activity against human Thyroid hormone receptor beta
T1 sequence (P10828 whole entry): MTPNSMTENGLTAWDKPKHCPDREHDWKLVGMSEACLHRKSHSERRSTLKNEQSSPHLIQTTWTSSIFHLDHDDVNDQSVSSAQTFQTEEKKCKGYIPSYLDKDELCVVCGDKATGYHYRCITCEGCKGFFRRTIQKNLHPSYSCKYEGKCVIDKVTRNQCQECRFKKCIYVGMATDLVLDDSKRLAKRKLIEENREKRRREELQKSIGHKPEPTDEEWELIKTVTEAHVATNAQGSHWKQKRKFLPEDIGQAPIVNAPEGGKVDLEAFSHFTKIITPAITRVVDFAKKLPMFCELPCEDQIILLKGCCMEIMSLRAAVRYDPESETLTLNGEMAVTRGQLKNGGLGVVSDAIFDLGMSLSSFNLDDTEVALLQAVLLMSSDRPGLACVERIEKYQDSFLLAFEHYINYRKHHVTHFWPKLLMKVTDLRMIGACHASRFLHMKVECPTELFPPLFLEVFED

[2] = molecular target: T2, Thyroid hormone receptor alpha (Homo sapiens, UniProt P10827); assay: Inhibitory activity against human Thyroid hormone receptor alpha
T2 sequence (P10827 whole entry): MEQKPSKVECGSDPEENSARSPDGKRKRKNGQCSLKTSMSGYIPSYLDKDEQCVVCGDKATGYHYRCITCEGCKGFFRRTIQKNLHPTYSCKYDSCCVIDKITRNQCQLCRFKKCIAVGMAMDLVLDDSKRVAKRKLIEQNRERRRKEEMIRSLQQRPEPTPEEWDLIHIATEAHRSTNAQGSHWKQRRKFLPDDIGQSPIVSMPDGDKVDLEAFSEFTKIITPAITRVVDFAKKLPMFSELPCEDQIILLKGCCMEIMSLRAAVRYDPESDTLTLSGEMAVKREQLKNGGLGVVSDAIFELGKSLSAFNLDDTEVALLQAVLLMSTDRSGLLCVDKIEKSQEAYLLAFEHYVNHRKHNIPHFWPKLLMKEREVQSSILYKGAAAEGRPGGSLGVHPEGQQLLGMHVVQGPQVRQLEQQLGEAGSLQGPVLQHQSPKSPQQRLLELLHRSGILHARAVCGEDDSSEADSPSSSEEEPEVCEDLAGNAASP

[3] = molecular target: T2, Thyroid hormone receptor alpha; assay: Inhibitory activity against human TRAFalpha
[4] = molecular target: T1, Thyroid hormone receptor beta; assay: Inhibitory activity against human TRAFbeta
Thyroid hormone receptor = molecular target: T3, Thyroid hormone receptor (Homo sapiens, UniProt P10827+P10828); assay: Binding affinity for human Thyroid hormone receptor; format: protein-complex assay
T3 sequence (P10827 whole entry): T2 sequence (P10827 whole entry)
T3 sequence (P10828 whole entry): T1 sequence (P10828 whole entry)

SMILES	IC50 [1]	IC50 [2]	IC50 [3]	IC50 [4]	Ki (Thyroid hormone receptor)
O=C(O)Cc1cc(Br)c(OCC2CCCCC2)c(Br)c1	770 nM	2700 nM	420 nM	520 nM	
O=C(O)CCc1cc(Br)c(OCC2CCCCC2)c(Br)c1	190 nM	460 nM	530 nM	120 nM	
Cc1oc2ccccc2c1Cc1cc(I)c(OCC(=O)O)c(I)c1			2200 nM	4100 nM	
CC(C)c1cc(Oc2c(Br)cc(C(=O)O)cc2Br)cc(C(C)C)c1O			1100 nM	4500 nM	1380 nM
CCCCc1oc2ccccc2c1C(=O)c1cc(I)c(CCN(CC)CC)c(I)c1	600 nM	650 nM	> 10000 nM	> 10000 nM	
CCCCCCOc1c(Br)cc(CCC(=O)O)cc1Br	360 nM	1100 nM	600 nM	1000 nM	

The remaining lines, values ahead:

IC50 [1]	IC50 [2]	IC50 [3]	IC50 [4]	Ki (Thyroid hormone receptor)	SMILES
32000 nM	160000 nM				CCOc1c(Br)cc(CC(=O)O)cc1Br
1900 nM	26000 nM				CCCCOc1c(Br)cc(CC(=O)O)cc1Br
1800 nM	4400 nM				CC(C)CCOc1c(Br)cc(CCC(=O)O)cc1Br
800 nM	6900 nM	820 nM	700 nM		CCC(CC)COc1c(Br)cc(CC(=O)O)cc1Br
5700 nM	20000 nM				CCCCCOc1c(Br)cc(CC(=O)O)cc1Br
1500 nM	5200 nM	700 nM	800 nM		CCCCCCOc1c(Br)cc(CC(=O)O)cc1Br
810 nM	1600 nM				CCC(CC)COc1c(Br)cc(CCC(=O)O)cc1Br
18000 nM	13000 nM				CC(C)CCOc1c(Br)cc(CC(=O)O)cc1Br
